From US7964616B2, “Compounds 679” (AstraZeneca AB, priority 2007, dated 2011)

Assays:
P2X7 receptor = target: T1, P2X7 receptor (Homo sapiens, UniProt Q99572); test: P2X7 assay (bbATP-induced ethidium bromide fluorescence in THP-1 cells); type: cell-based; settings: 10^-5M bbATP agonist, read-out: P2X7 pIC50 (converted)
T1 construct: 200 μl of a suspension of THP-1 cells; endogenous in cells; host or cells: THP-1 cells
T1 sequence (Q99572 1-595): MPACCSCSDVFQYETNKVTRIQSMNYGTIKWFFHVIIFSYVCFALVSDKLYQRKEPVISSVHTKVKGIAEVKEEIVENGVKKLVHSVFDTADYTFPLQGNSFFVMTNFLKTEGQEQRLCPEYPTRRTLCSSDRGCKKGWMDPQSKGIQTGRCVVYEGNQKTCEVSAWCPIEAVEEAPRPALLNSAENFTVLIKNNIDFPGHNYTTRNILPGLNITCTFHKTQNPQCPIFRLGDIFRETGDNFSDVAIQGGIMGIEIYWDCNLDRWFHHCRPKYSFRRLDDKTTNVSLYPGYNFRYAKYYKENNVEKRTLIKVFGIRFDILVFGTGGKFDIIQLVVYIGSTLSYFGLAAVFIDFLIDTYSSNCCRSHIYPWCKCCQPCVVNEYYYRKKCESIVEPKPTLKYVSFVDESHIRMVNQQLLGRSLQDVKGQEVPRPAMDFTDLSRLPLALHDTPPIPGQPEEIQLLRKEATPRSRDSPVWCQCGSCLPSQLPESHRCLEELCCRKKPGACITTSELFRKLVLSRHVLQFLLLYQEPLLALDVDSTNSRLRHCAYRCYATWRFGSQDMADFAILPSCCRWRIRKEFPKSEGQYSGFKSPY
Text: Certain compounds such as benzoylbenzoyl adenosine triphosphate (bbATP) are known to be agonists of the P2X7 receptor, effecting the formation of pores in the plasma membrane (Drug Development Research (1996), 37(3), p. 126). Consequently, when the receptor is activated using bbATP in the presence of ethidium bromide (a fluorescent DNA probe), an increase in the fluorescence of intracellular DNA-bound ethidium bromide is observed. The increase in fluorescence can be used as a measure of P2X7 receptor activation and therefore to quantify the effect of a compound on the P2X7 receptor.
In this manner, each of the title compounds of the Examples was tested for antagonist activity at the P2X7 receptor. Thus, the test was performed in 96-well flat bottomed microtitre plates, the wells being filled with 250 μl of test solution comprising 200 μl of a suspension of THP-1 cells (2.5×10^6 cells/ml) containing 10^−4M ethidium bromide, 25 μl of a high potassium buffer solution containing 10^−5M bbATP, and 25 μl of the high potassium buffer solution containing concentrations of test compound typically from 30 μM-0.001 μM. The plate was covered with a plastics sheet and incubated at 37° C. for one hour. The plate was then read in a Perkin-Elmer fluorescent plate reader, excitation 520 nm, emission 595 nm, slit widths: Ex 15 nm, Em 20 nm. For the purposes of comparison, bbATP (a P2X7 receptor agonist) and pyridoxal 5-phosphate (a P2X7 receptor antagonist) were used separately in the test as controls. From the readings obtained, a pIC50 figure was calculated for each test compound, this figure being the negative logarithm of the concentration of test compound necessary to reduce the bbATP agonist activity by 50%.

[1] = target: T2, ion channel subunit encoded by the human ether-a-go-go-related gene (hERG) (Homo sapiens, UniProt Q12809); test: hERG binding protocol (radioligand competition, HEK cell membranes expressing hERG); settings: for IC50: a 'less than' figure indicates <50% inhibition at the quoted concentration, the highest tested, read-out: hERG pIC50 (converted); for P2X7:hERG Ratio: ratio of P2X7:hERG affinity
T2 construct: expressed in transfected cells; host or cells: HEK (human embryonic kidney) cells, membrane preparation
Experimental: The hERG assay was performed according to the procedure described in WO2005/037052. The affinity (pIC50) of compounds for the ion channel subunit encoded by the human ether-a-go-go-related gene (hERG) gene was determined by competition binding of radioligand 3,7-Bis[2-(4-nitro[3,5-^3H]phenyl)ethyl]-3,7-diazabicyclo[3.3.1]nonane to HEK (human embryonic kidney) cell membranes expressing hERG, in a filter wash format.
Membranes were incubated for 3 hours at room temperature with serial dilutions of the test compounds, radioligand 3,7-Bis[2-(4-nitro[3,5-^3H]phenyl)ethyl]-3,7-diazabicyclo[3.3.1]nonane at 1 nM final concentration, and assay buffer (10 mM HEPES, 130 mM NaCl, 5 mM KCl, 1 mM EGTA, 0.8 mM MgCl2, pH 7.4). The assay was conducted in a final volume of 200 μL, in the presence of 1% (v/v) dimethyl sulphoxide. Non-specific binding was determined by measuring the binding of 3,7-Bis[2-(4-nitro[3,5-^3H]phenyl)ethyl]-3,7-diazabicyclo[3.3.1]nonane in the presence of 10 […]. During this incubation GF/B filter plates were immersed in coating solution 0.3% (v/v) Polyethylenimine and 0.2% (w/v) BSA). Following incubation assay plates were harvested onto precoated GF/B filter plates using a Tomtec harvester.
The pIC50, defined as the negative logarithm of the concentration of compound required for 50% reduction in 3,7-Bis[2-(4-nitro[3,5-^3H]phenyl)ethyl]-3,7-diazabicyclo[3.3.1]nonane binding, was determined. A ‘less than’ figure indicates <50% inhibition at the quoted concentration, this being the highest concentration tested.

primary rat hepatocytes = test: In vitro phospholipidosis protocol; type: cell-based, Han Wistar rats
Experimental: Assessment of a compounds potential to induce phospholipidosis was determined by an in vitro fluorescent assay which reports the accumulation of phospholipids in primary rat hepatocytes. Hepatocytes were isolated from Han Wistar rats by a 2-stage collagenase digest method. The hepatocytes were then plated on collagen coated 96-well plates in William's E medium. The cells were left to adhere for 1 hour then the media was replaced with a solution of 250 μg·ml^−1 collagen in Hepatozyme cell culture medium.
Cells were then cultured for 48 hours with the medium being changed at 24 hours. At 48 hours post isolation the medium was changed to Hepatozyme supplemented with the fluorescent phospholipid N-(6-tetramethylrhodaminethiocarbamoyl)-1,2-dihexadecanoyl-sn-glycero-3-phosphoethanolamine (DHPE-TRITC) (5 μg·ml^−1). At this time, test compounds were added to the hepatocytes at a range of concentrations in a serial dilution with a final concentration of 0.4% dimethylsulfoxide (used as solvent for test compounds). […]
Images of the hepatocytes were then acquired using an automated microscope platform (GE In Cell Analyser 3000). […] The quantified accumulation observed with test compounds was then normalised to a range of 0, representing the accumulation observed in cells exposed to vehicle only, and 1, representing cells exposed to 10 μM amiodarone. […]

Bioavailability - Rat PK = type: in vivo, male Sprague Dawley rats; settings: male, Sprague Dawley, plasma, po 5 mg/kg vs iv 3 mg/kg
Experimental: Pharmacokinetic parameters and concepts are used in DMPK to describe the fate of a compound in the body. The distribution and excretion of a compound are reflected in the plasma concentration-time profile. By appropriate dosing, sampling and analysis key parameters (clearance, volume, half-life, bioavailability etc.) can be determined.
Test compounds were typically dosed intravenously to the right lateral tail vein of male Sprague Dawley rats at a dose level of 3 mg/kg (1 ml/kg) in DMA:water (40:60 v/v). Rats were dosed orally at a dose level of 5 mg/kg (2 ml/kg) in 0.5% hydroxypropylmethylcellulose (HPMC, w/v)/0.1% Tween 80 (v/v) in water). […]
To determine the plasma levels of test compound, 50 μl of methanol was added to 50 μl of each of the test samples, whilst 40 μl of methanol was added to the 50 μl aliquots of control plasma containing 10 μl spikes of authentic standard used to create a calibration line and QCs. […] The resultant supernatants were analysed by HPLC-MSMS after an appropriate, selective and sensitive method had been created by optimizing both cone voltage and collision energy.
Pharmacokinetic parameters were derived from concentration-time using non-compartmental analysis in WinNonLin®. Bioavailability was calculated using the following equation F=AUCPO*DoseIV/AUCIV*DosePO.

T2 sequence (Q12809 whole entry): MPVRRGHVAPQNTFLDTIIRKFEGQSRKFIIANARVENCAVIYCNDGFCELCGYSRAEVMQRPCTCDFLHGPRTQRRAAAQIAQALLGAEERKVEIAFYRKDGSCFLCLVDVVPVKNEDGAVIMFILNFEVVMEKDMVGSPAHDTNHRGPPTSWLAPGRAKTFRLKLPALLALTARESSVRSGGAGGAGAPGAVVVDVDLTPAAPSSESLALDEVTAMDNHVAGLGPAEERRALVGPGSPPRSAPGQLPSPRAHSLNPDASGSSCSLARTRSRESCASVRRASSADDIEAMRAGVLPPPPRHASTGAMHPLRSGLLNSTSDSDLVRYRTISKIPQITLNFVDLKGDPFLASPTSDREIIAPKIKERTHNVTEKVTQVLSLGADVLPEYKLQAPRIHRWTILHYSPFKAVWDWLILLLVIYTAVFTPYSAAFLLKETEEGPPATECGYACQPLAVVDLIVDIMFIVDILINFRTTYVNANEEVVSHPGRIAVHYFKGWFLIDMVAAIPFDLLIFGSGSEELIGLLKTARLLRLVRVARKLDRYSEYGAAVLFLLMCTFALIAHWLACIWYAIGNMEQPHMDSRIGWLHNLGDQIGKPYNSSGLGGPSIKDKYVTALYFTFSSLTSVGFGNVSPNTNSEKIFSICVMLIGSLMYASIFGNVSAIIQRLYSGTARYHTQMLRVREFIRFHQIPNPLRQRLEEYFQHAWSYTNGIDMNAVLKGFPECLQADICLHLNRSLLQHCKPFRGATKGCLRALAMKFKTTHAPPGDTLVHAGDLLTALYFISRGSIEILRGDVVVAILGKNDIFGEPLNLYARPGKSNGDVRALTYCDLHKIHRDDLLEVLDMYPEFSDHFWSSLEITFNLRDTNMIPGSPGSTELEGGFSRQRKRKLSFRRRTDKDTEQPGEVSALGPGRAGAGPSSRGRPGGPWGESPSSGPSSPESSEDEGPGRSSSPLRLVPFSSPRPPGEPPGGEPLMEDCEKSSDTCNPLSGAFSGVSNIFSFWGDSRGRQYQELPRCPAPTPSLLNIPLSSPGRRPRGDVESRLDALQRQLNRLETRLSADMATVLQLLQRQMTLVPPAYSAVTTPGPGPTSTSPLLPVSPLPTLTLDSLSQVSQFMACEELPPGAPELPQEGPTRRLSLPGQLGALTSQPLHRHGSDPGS

Row | IC50 (P2X7 receptor) [nM] | melting point | bioavailability (Bioavailability - Rat PK) [%] | SMILES | IC50 [1] [µM] | P2X7:hERG Ratio [1] | minimum toxic concentration (primary rat hepatocytes; lowest dose that caused >50% cell toxicity, primary rat hepatocytes) [µM] | phospholipid (DHPE-TRITC) accumulation (primary rat hepatocytes; maximum test concentration of 250 uM, normalised 0 = vehicle, 1 = 10 μM amiodarone)
1 | 10 |  |  | C[C@H]1CCC[C@@](O)(CNC(=O)c2c(Cl)ccc3nc(N4CCC(C)(O)C4)ccc23)C1 (single isomer, unassigned) [Example 4 - isomer 2] | > 100 | >10,000 |  | 
2 |  | 195 to 200 °C (dec.) |  | C[C@H]1CCC[C@@](O)(CNC(=O)c2c(Cl)ccc3nc(N4CCC(C)(O)C4)ccc23)C1 (stereo partly drawn) [Example 4, 6-Chloro-N-{[(1S,3S)-1-hydroxy-3-methylcyclohexyl]methyl}-2-(3-hydroxy-3-methylpyrrolidin-1-yl)quinoline-5-carboxamide] |  |  |  | 

Further lines, the molecule ahead of its results:

Row | SMILES | IC50 (P2X7 receptor) [nM] | melting point | bioavailability (Bioavailability - Rat PK) [%] | IC50 [1] [µM] | P2X7:hERG Ratio [1] | minimum toxic concentration (primary rat hepatocytes; lowest dose that caused >50% cell toxicity, primary rat hepatocytes) [µM] | phospholipid (DHPE-TRITC) accumulation (primary rat hepatocytes; maximum test concentration of 250 uM, normalised 0 = vehicle, 1 = 10 μM amiodarone)
3 | C[C@H]1CCC[C@@](O)(CNC(=O)c2c(Cl)ccc3nc(N4CC[C@H](O)C4)ccc23)C1 [Example 1, 6-Chloro-N-{[(1S,3S)-1-hydroxy-3-methylcyclohexyl]methyl}-2-[(3S)-3-hydroxypyrrolidin-1-yl]quinoline-5-carboxamide] | 7.94 | 222 °C |  | > 100 | >10,000 |  | 
4 | C[C@H]1CCC[C@@](O)(CNC(=O)c2c(Cl)ccc3nc(N4CC[C@@H](O)C4)ccc23)C1 [Example 2, 6-Chloro-N-{[(1S,3S)-1-hydroxy-3-methylcyclohexyl]methyl}-2-[(3R)-3-hydroxypyrrolidin-1-yl]quinoline-5-carboxamide] | 7.94 | 222 to 223 °C | 59 | > 100 | >10,000 | > 250 | no measurable accumulation
5 | C[C@H]1CCC[C@@](O)(CNC(=O)c2c(Cl)ccc3nc(N4CCC(O)CC4)ccc23)C1 [Example 3, 6-Chloro-N-{[(1S,3S)-1-hydroxy-3-methylcyclohexyl]methyl}-2-(4-hydroxypiperidin-1-yl)quinoline-5-carboxamide] | 7.94 | 120 °C (dec.) |  | > 100 | >10,000 |  | 
